Experimental data from patent US8389523B2, “Substituted quinoxaline and an agrochemical composition thereof” (Kumiai Chemical Industry Co., Ltd., priority 2007, dated 2013).

Key:
Assay type in all cases: in vivo
Set-up in all cases: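 grade 0 to 5 of growth suppression where 5 is 90% or more and 0 below 10%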
[1] = system: Echinochloa oryzicola Vasing; experiment: Herbicidal effects in paddy field soil treatment (Test Example 1); details: paddy field soil treatment; 1000 g of the active ingredient per hectare; wettable powder added dropwise on water surface; 21st day after treatment
Outline: (§1)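 Paddy soil pre-emergence test: seeds sown, flooded 3 cm; next day wettable powder in water applied dropwise to water surface, 1000 g a.i./ha; greenhouse; effect rated visually on scale at 21 d post-treatment.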

[2] = system: Scirpus juncoides Roxb. var. ohwianus. T. Koyama; experiment: as above; details: paddy field soil treatment; 1000 g of the active ingredient per hectare; wettable powder added dropwise on water surface; 21st day after treatment
Outline: as §1

[3] = system: Monochoria vaginalis (Burm. f.) Presl var. plantaginea (Roxb.) Solms-Laub.; experiment: as above; details: paddy field soil treatment; 1000 g of the active ingredient per hectare; wettable powder added dropwise on water surface; 21st day after treatment
Outline: as §1

[4] = system: Abutilon theophrasti medicus; experiment: Herbicidal effects in upland field foliar treatment (Test Example 3); details: criteria of Table 138; for herbicidal effects on Abutilon theophrasti medicus: 1000 g of the active ingredient per hectare, 14th day after the treatment, wettable powder; for herbicidal effect (index) on Abutilon theophrasti medicus: 1000 g active ingredient per hectare, 14th day after treatment
Outline: (§2)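 Greenhouse pot test, upland soil; 2-wk-old plants sprayed from above with water-diluted wettable powder (1000 L/ha spray volume, 1000 g a.i./ha). Regrown in greenhouse; visual herbicidal score on day 14 post-treatment.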

[5] = system: Echinochloa crus-galli (L.) P. Beauv. var. crus-galli; experiment: as above; details: criteria of Table 138; for herbicidal effects on Echinochloa crus-galli (L.) P. Beauv. var. crus-galli: 1000 g of the active ingredient per hectare, 14th day after the treatment, wettable powder; for herbicidal effect (index) on Echinochloa crus-galli (L.) P. Beauv. var. crus-galli: 1000 g active ingredient per hectare, 14th day after treatment
Outline: as §2

[6] = system: Amaranthus viridis L.; experiment: as above; details: criteria of Table 138; for herbicidal effects on Amaranthus viridis L.: 1000 g of the active ingredient per hectare, 14th day after the treatment, wettable powder; for herbicidal effect (index) on Amaranthus viridis L.: 1000 g active ingredient per hectare, 14th day after treatment
Outline: as §2

[7] = system: Abutilon theophrasti medicus; experiment: Herbicidal effects in upland field soil treatment (Test Example 2); details: 1000 g active ingredient per hectare, 21st day after treatment, criteria of Table 138
Outline: (§3)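 Seeds sown in upland soil and covered; surface sprayed with water-diluted wettable powder, 1000 g a.i./ha, spray volume 1000 L/ha. Greenhouse growth, visual herbicidal rating at day 21.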

[8] = system: Amaranthus viridis L.; experiment: as above; details: 1000 g active ingredient per hectare, 21st day after treatment, criteria of Table 138
Outline: as §3

SMILES | Herbicidal effects index, Echinochloa oryzicola Vasing [1] | Herbicidal effects index, Scirpus juncoides Roxb. var. ohwianus. T. Koyama [2] | Herbicidal effects index, Monochoria vaginalis (Burm. f.) Presl var. plantaginea (Roxb.) Solms-Laub. [3] | herbicidal effects on Abutilon theophrasti medicus [4] | herbicidal effects on Echinochloa crus-galli (L.) P. Beauv. var. crus-galli [5] | herbicidal effects on Amaranthus viridis L. [6] | herbicidal effect (index) on Abutilon theophrasti medicus [7] | herbicidal effect (index) on Amaranthus viridis L. [8] | herbicidal effect (index) on Abutilon theophrasti medicus [4] | herbicidal effect (index) on Echinochloa crus-galli (L.) P. Beauv. var. crus-galli [5] | herbicidal effect (index) on Amaranthus viridis L. [6]
CC(c1ccccc1)n1c(=O)c(C(=O)C2=C(O)CCCC2=O)nc2cccnc21 (stereo not drawn) [III-130] | 5 | 5 | 5 | 5 | 5 | 5 | 5 | 5 | – | – | –
COCCn1c(=O)c(C(=O)C2=C(O)CCCC2=O)nc2cccnc21 [III-88] | 5 | 4 | 5 | 5 | 5 | 5 | 5 | 5 | – | – | –
O=C1CCCC(O)=C1C(=O)c1nc2cccnc2n(Cc2ccccc2OC(F)F)c1=O [III-234] | 5 | 5 | 5 | 5 | 5 | 5 | 5 | 5 | – | – | –
COCCCn1c(=O)c(C(=O)C2=C(O)CCCC2=O)nc2ccccc21 [Compound I-93] | 5 | 5 | 5 | – | – | – | 4 | 5 | 5 | 5 | 5
O=C1CCCC(O)=C1C(=O)c1nc2cc(F)c(F)cc2n(-c2ccccc2)c1=O [II-260] | 5 | 5 | 5 | 5 | 5 | 5 | 5 | 5 | – | – | –
CSc1ccc(-n2c(=O)c(C(=O)C3=C(O)CCCC3=O)nc3ccccc32)cc1 [II-122] | 5 | 5 | 5 | 4 | 5 | 5 | 5 | 5 | – | – | –
COc1ccc2nc(C(=O)C3=C(O)CCCC3=O)c(=O)n(-c3cc(F)c(OC)cc3F)c2c1 [II-254] | 5 | 5 | 5 | 4 | 5 | 5 | 4 | 5 | – | – | –
CN1C(=O)COc2ccc(-n3c(=O)c(C(=O)C4=C(O)CCCC4=O)nc4ccccc43)cc21 [I-275] | 4 | 5 | 5 | – | – | – | 4 | 5 | 4 | 5 | 5
CCc1cccc(-n2c(=O)c(C(=O)C3=C(O)CCCC3=O)nc3ccccc32)c1 [II-23] | 5 | 5 | 5 | 5 | 5 | 5 | 5 | 5 | – | – | –
